In assay [1] the target is T1, wild type human RORγt ligand binding domain (RORyt LBD) (Homo sapiens, UniProt P51449).
T1 construct: His-tag (N); TurboTEV protease cleavage site (ENLYFQG) (N); made in house; host or cells: E. coli (pHIS1, modified pET vector)
T1 sequence (P51449 258-518): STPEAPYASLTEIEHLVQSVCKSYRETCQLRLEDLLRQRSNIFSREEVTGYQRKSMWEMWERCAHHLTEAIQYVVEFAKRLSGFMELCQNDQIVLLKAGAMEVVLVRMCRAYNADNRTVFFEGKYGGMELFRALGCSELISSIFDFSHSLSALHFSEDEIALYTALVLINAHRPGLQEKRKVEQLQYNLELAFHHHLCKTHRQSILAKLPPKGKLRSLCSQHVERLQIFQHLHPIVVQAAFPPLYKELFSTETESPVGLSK
Kind of assay: RORγt ThermoFluor assay (thermal shift, binding affinity KD).

Assay [2] has as its target T2, wild type human RORγt LBD (Homo sapiens, UniProt P51449).
T2 construct: expressed in transfected cells; host or cells: HEK293T
T2 sequence (P51449 258-518): T1 sequence (P51449 258-518)
Kind of assay: RORγt (LBD) Reporter Assay (GAL4-luciferase, HEK293T cells). It is filed as cell-based. To be noted: HEK293T cells; for inhibition at 6 µM: HEK-293T, read-out: RORγt (LBD) Reporter Assay, % inhibition @ 6 µM, 6 µM compound concentration. (In general: In a reporter assay the amount or activity of a reporter protein is the signal.)

Counter-ions that a name gives are not always drawn.

As usually defined, the Kd is the concentration at which binding is half-saturated. The term IC50 denotes the concentration at which inhibition is half-maximal. Read a high IC50 as weaker potency in that assay. Consider `Cn1cncc1C(O)(c1ccc(C(F)(F)F)nc1)c1ccc2nc(-c3nccn3C)c(Cc3ccccc3)c(C#N)c2c1` (stereo not drawn) [Example 153, 3-Benzyl-6-(hydroxy(1-methyl-1H-imidazol-5-yl)(6-(trifluoromethyl)pyridin-3-yl)methyl)-2-(1-methyl-1H-imidazol-2-yl)quinoline-4-carbonitrile^.TFA], for which the Kd in assay [1] was 15000 nM. Besides, in assay [2], the 50% inhibitory concentration (IC50) was more than 6000 nM and the inhibition at 6 µM was determined as 44%.

Turning to `COc1nc2ccc(C(O)(c3oc(C)nc3C)c3cnnn3C)cc2c(Cl)c1Cc1ccc(C(F)(F)F)cc1` (stereo not drawn) [Example 156a, (4-chloro-2-methoxy-3-(4-(trifluoromethyl)benzyl)quinolin-6-yl)(2,4-dimethylozazol-5-yl)(1-methyl-1H-1,2,3-triazol-5-yl)methanol], in assay [1], the Kd worked out at 0.63 nM. Also, in assay [2], the IC50 worked out at 6.6 nM and the inhibition at 6 µM is 94%.

With `COc1nc2ccc(C(O)(c3ccc(F)cc3)C3CCN(C(C)=O)CC3)cc2c(Cl)c1Cc1ccc(-n2cccn2)cc1` (stereo not drawn) [Example 157a, 1-(4-((3-(4-(1H-Pyrazol-1-yl)benzyl)4-chloro-2-methoxyquinolin-6-yl)(4-fluorophenyl)(hydroxy)methyl)piperidin-1-yl)ethanone], the Kd in assay [1] stood at 3.9 nM. In addition, in assay [2], the IC50 was approximately 7 nM and the inhibition at 6 µM was found to be 93%.

For the molecule `COc1nc2ccc(C(O)(c3ccc(F)cc3)c3cccnc3)cc2c(Cl)c1Cc1ccc(-n2cccn2)cc1` (stereo not drawn) [Example 158a, (3-(4-(1H-Pyrazol-1-yl)benzyl)-4-chloro-2-methoxyquinolin-6-yl)(4-fluorophenyl)(pyridin-3-yl)methanol], in assay [1], the Kd was found to be 21 nM. In assay [2], the IC50 came out at 57 nM and the inhibition at 6 µM was found to be 97%.

In the case of `COc1ccc(C(O)(c2cccnc2)c2ccc3nc(OC)c(Cc4ccc(-n5cccn5)cc4)c(Cl)c3c2)cc1OC` (stereo not drawn) [Example 159a, (3-(4-(1H-Pyrazol-1-yl)benzyl)-4-chloro-2-methoxyquinolin-6-yl)(3,4-dimethoxyphenyl)(pyridin-3-yl)methanol], the Kd in assay [1] is 29 nM. In assay [2], the IC50 came out at 120 nM and the inhibition at 6 µM was 107%.

`COc1nc2ccc(C(O)(c3ccc(F)cc3)c3cncn3C)cc2c(Cl)c1Cc1ccc(-n2cccn2)cc1` (stereo not drawn) [Example 160a, (3-(4-(1H-Pyrazol-1-yl)benzyl)-4-chloro-2-methoxyquinolin-6-yl)(4-fluorophenyl)(1-methyl-1H-imidazol-5-yl)methanol]: in assay [1], the dissociation constant Kd was determined as 49 nM. In assay [2], half-maximal inhibition (IC50) was put at 59 nM and the inhibition at 6 µM was 112%.

`COc1nc2ccc(C(O)(c3cccnc3)c3ccc(Cl)c(Cl)c3)cc2c(Cl)c1Cc1ccc(-n2cccn2)cc1` (stereo not drawn) [Example 161a, (3-(4-(1H-Pyrazol-1-yl)benzyl)-4-chloro-2-methoxyquinolin-6-yl)(3,4-dichlorophenyl)(pyridin-3-yl)methanol]: the equilibrium dissociation constant (Kd) in assay [1] amounted to 15 nM. Besides, in assay [2], the IC50 was determined as 57 nM and the inhibition at 6 µM came out at 96%.

These data come from EP3057951B1, “METHYLENE LINKED QUINOLINYL MODULATORS OF ROR-GAMMA-T” (Janssen Pharmaceutica NV, priority 2013, dated 2015).
